Results: patent US20250115597A1, “TYK2 INHIBITORS AND COMPOSITIONS AND METHODS THEREOF” (LYNK PHARMACEUTICALS CO. LTD., priority 2021, published 2025)
Converted amounts (≈) assume the structure as drawn. Where two headings read alike, the source gives them in different places.

Legend:
TYK2-JH2 domain = target: T1, TYK2-JH2 domain (Homo sapiens, UniProt P29597); experiment: Binding activity test for JH2 domain of TYK2 (Tb-antibody/tracer FRET); conditions: for JAK1/TYK2 selectivity: ratio JAK1-JH2 IC50 / TYK2-JH2 IC50
T1 construct: IC50 on JH2 domain activity (nM)
In short: (§1)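 FRET read-out after 60 min at 25° C plus overnight at 4° C; tracer displacement detected via Tb-labelled antibody on the JH2 domain. Dose-response used 11 points at 3-fold dilution.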

Kinetic solubility = format: physicochemical; conditions: phosphate buffer, aqueous buffer, kinetic from dmso stock, PBS (pH 7.4), 1% DMSO, room temperature
Method: Aliquots of 8 μL of reference and test compound stock solutions (10 mM/5 mM) are added into 792 μL of 100 mM pH 7.4 phosphate buffer. The final DMSO concentration is 1%. Sample tubes are shaken for 2 hours at 1000 rpm at room temperature. Samples are centrifuged at 12000 rpm for 10 min to precipitate un-dissolved particles. And transfer the supernatants to a new tube or plate. Add 5 μL of samples (no diluted, 10 times diluted and 100 times diluted) and standard curve samples to 95 μL of ACN containing IS for LC-MS/MS analysis.

[1] = Microsomal metabolic stability assay; format: in vitro ADME; conditions: pH 7.4, 0.5 mg/mL protein, 1 μM compound
In short: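 Parent loss was tracked by LC/MS/MS at 0, 5, 15, 30 and 45 min, with half-life derived from the ln(% remaining)–time slope. Incubation at 37 °C, pH 7.4 phosphate/EDTA buffer: 0.5 mg/mL microsomes, 1 μM compound, NADPH-regenerated (2 mM).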

[2] = Plasma protein binding by equilibrium dialysis; format: in vitro ADME; conditions: human plasma, equilibrium dialysis 5 hours at 37° C.; read-out: % Bound (human) (converted)
Method: Plasma Protein Binding by Equilibrium Dialysis
Aliquots of test compound stock solution and warfarin stock solution were spiked into plasma to give the matrix solutions with theoretical concentrations of test compound at 0.2 and 2 μM or warfarin at 2 μM. Immediately transfer 50 μL of the spiked plasma solution suspension to a 96-well plate to act as T=0 control sample. Assemble the dialysis set up following the manufacturer's instructions. Load cells with 150 μL of plasma sample and dialyzed against equal volume of dialysis buffer (PBS). The assay is performed in duplicate. Cover the unit with gas permeable lid and incubate for 5 hours at 37° C. at 100 rpm in a constant temperature shaking box. At the end of incubation, remove lid and pipette 50 μL of post-dialysis samples from both buffer and plasma solution chambers into separated 96-well plate for analysis, respectively. Add 50 μL of plasma solution to the buffer samples, and an equal volume of PBS to the collected plasma solution samples. Shake the plate at 1000 rpm for 2 minutes and add 600 μL of 50% ACN/MeOH containing an appropriate internal standard (IS) to precipitate protein and release compound. Vortex at 1000 rpm for 10 minutes. Centrifuge for 10 minutes at 4000 rpm. Then transfer 75 μL of the supernatant to new 96-well plates for analysis. Add 150 μL of distilled water to each sample and mix for analysis by LC-MS/MS.
The free rate (% Unbound), binding rate (% Bound), and recovery rate (% Recovery) of the compound are calculated as follows: […]

JAK1-JH2 domain = target: T2, JAK1-JH2 domain (Homo sapiens, UniProt P23458); experiment: Binding activity test for JH2 domain of JAK1 (Tb-antibody/tracer FRET)
T2 construct: IC50 on JH2 domain activity (nM)
In short: as §1

pSTAT1 = experiment: Phosphorylation inhibition of STAT in human whole blood, IFN-alpha stimulated (flow cytometry); format: cell-based; conditions: 20 min; human whole blood, IFN-alpha 20 mins, CD3 cells; read-out: IC50 on pSTAT1 inhibition in h WB
In short: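 Readout is pSTAT1 (Y701) in CD3-stained cells by flow cytometry, with IC50 derived from a 4-parameter logistic equation. Fresh human PBMC or fresh whole blood received a 20-min Universal Type I IFN-alpha stimulation before fixation and cold permeabilization.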

[3] = target: T3, Ba/F3-FL-TYK2-P760L cells (Homo sapiens, UniProt P29597, P760L, cells depend on it); experiment: Anti-proliferative assay, Ba/F3-FL-TYK2-P760L cells (Cell-Titer Glo); format: cell-based; conditions: 72 h, read-out: BaF3-FL-T2P760L IC50
T3 construct: BaF3-FL-T2P760L (nM)
In short: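 Compound exposure ran 72 h at 37 °C in 5% CO2 across nine 3-fold concentrations from a 20 μM top dose, added 24 h after seeding 2000 cells/well.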

[4] = dog liver microsomes, read-out: Dog LM Clint
[5] = dog liver microsomes, read-out: Dog LM T½
[6] = human liver microsomes, read-out: Human LM Clint
[7] = human liver microsomes, read-out: Human LM T½
[8] = rat liver microsomes, read-out: Rat LM Clint
[9] = rat liver microsomes, read-out: Rat LM T½

T1 sequence (P29597 589-875 limits assumed): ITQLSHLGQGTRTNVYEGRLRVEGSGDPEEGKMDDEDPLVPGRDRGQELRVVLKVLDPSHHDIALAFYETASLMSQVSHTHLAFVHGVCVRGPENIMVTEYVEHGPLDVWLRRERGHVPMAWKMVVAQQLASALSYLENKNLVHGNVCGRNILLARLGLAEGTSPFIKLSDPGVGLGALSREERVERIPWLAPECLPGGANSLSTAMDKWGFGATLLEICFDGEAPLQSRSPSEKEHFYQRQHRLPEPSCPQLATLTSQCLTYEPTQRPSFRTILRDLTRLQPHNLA
T3 sequence (P29597 whole entry P760L): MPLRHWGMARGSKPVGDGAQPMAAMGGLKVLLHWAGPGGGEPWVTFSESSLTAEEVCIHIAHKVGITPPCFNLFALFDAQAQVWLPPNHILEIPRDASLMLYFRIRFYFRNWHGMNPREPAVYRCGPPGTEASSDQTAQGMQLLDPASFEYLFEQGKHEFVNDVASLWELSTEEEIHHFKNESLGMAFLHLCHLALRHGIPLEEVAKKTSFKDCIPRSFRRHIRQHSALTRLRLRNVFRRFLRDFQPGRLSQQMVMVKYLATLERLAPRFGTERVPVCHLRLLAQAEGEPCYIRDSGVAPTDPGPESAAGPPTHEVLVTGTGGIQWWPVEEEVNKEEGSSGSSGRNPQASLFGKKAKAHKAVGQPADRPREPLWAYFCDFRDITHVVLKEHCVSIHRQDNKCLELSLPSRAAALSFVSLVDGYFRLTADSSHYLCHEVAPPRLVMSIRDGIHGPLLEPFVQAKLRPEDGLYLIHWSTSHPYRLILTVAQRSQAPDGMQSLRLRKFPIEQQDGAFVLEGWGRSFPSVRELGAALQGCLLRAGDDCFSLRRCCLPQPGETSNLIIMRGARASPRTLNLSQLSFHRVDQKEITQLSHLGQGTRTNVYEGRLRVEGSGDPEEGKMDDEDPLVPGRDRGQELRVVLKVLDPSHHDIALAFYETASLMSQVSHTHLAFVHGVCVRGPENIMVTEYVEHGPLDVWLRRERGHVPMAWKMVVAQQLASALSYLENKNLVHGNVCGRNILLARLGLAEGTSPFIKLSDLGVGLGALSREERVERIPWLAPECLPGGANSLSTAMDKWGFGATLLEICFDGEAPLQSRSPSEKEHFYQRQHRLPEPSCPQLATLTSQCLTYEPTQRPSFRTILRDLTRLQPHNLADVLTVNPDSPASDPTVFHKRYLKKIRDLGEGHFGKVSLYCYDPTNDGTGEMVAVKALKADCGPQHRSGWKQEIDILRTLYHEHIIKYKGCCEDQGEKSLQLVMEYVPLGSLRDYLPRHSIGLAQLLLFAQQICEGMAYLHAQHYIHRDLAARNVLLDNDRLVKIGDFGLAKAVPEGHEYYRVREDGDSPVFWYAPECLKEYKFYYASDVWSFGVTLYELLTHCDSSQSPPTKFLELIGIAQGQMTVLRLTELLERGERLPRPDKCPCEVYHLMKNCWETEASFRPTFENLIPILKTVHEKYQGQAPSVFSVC
T2 sequence (P23458 583-855 limits assumed): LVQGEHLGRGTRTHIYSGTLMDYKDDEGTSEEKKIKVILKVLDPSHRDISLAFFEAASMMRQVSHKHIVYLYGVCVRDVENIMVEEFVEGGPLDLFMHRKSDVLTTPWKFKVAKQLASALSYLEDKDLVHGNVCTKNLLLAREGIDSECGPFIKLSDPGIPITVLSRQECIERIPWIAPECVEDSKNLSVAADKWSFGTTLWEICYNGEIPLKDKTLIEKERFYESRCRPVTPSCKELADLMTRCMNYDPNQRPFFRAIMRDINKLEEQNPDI

| SMILES | IC50 (TYK2-JH2 domain) [µM] | JAK1/TYK2 selectivity (TYK2-JH2 domain) | solubility at 2 h (Kinetic solubility) [µM] | microsomal CLint at 1 μM [1, 4] [µL/min/mg] | half-life at 1 μM [1, 5] [min] | microsomal CLint at 1 μM [1, 6] [µL/min/mg] | half-life at 1 μM [1, 7] [min] | microsomal CLint at 1 μM [1, 8] [µL/min/mg] | half-life at 1 μM [1, 9] [min] | fraction unbound at 5 h [2] | IC50 (JAK1-JH2 domain) [µM] | IC50 (pSTAT1) [µM] | GI50 [3] [µM] |
| --- | --- | --- | --- | --- | --- | --- | --- | --- | --- | --- | --- | --- | --- |
| [2H]C([2H])([2H])NC(=O)c1cnc(NC(=O)C2CC2)cc1Nc1cn(C)c2ncn([C@H](C)C(F)(F)F)c(=O)c12 (single isomer, unassigned) [Example 234A, (R*)-6-(cyclopropanecarboxamido)-N-(methyl-d3)-4-((7-methyl-4-oxo-3-(1,1,1-trifluoropropan-2-yl)-4,7-dihydro-3H-pyrrolo[2,3-d]pyrimidin-5-yl)amino)nicotinamide] | 0.000521 | 46.7 | 29.9 (≈ 14.4 µg/mL) | 10.9 | 127 | 24.3 | 57 | 35.3 | 39.3 | 0.123 | 0.0244 | 0.495 |  |
| [2H]C([2H])([2H])NC(=O)c1cnc(Nc2ccc(F)cn2)cc1Nc1cn(CCOC)c2ccn(CC)c(=O)c12 [Example 192, 4-((5-Ethyl-1-(2-methoxyethyl)-4-oxo-4,5-dihydro-1H-pyrrolo[3,2-c]pyridin-3-yl)amino)-6-((5-fluoropyridin-2-yl)amino)-N-(methyl-d3)nicotinamide] | 0.00337 |  | 17.8 (≈ 8.59 µg/mL) | 21.9 | 63.4 | 26.8 | 51.6 | 72.6 | 19.1 |  |  |  | 0.124 |
| [2H]C([2H])([2H])NC(=O)c1cnc2cc1Nc1cc(cc(-c3ncn(CC)n3)c1OC)COCc1nc(ccc1F)N2 [Example 85, 11-(1-Ethyl-1H-1,2,4-triazol-3-yl)-18-fluoro-10-methoxy-N-(methyl-d3)-15-oxa-2,4,8,21-tetraazatetracyclo[15.3.1.1^{3,7}.1^{9,13}]tricosa-1(20),3,5,7(23),9,11,13(22),17(21),18-nonaene-6-carboxamide] |  |  | 15.2 (≈ 7.74 µg/mL) |  |  |  |  |  |  |  |  |  | 0.142 |
| [2H]C([2H])([2H])NC(=O)c1cnc(NC(=O)C2CC2)cc1Nc1ccc2cnn(C(C)C#N)c2c1OC (stereo not shown) [Example 249, 4-((1-(1-Cyanoethyl)-7-methoxy-1H-indazol-6-yl)amino)-6-(cyclopropanecarboxamido)-N-(methyl-d3)nicotinamide] | 0.000782 | 32.5 | 47.4 (≈ 20.7 µg/mL) |  |  |  |  |  |  |  | 0.0254 |  | 0.357 |
| [2H]C([2H])([2H])NC(=O)c1cnc(Nc2ccn(C)n2)cc1Nc1nn(C)c2ccn(CC)c(=O)c12 [Example 219] | 0.00286 |  | 33.9 (≈ 14.4 µg/mL) |  |  |  |  |  |  |  |  |  | 1.26 |
